From ChEMBL document CHEMBL4819020, “Discovery of [1,2,4]triazolo[1,5-a]pyrimidines derivatives as potential anticancer agents” (Eur J Med Chem, 2021)
Calls of active or inactive are those of the source. The rule behind the calls is not given here.

What was measured:
[1] = Toxicity in mouse assessed by effect on changes in body weight at 2 mg/kg, ig measured after 2 weeks; type: organism-based; details: in vivo, po, 336 h
[2] = Toxicity in mouse assessed as effect on kidney at 2 mg/kg, ig measured after 2 weeks by H and E staining based microscopic method; type: organism-based; details: in vivo, po, 336 h
MGC-803 [3] = assay: Induction of apoptosis in human MGC-803 cells assessed as viable cells at 3 uM measured after 48 hrs by Annexin V-FITC/PI staining based flow cytometry method (reference value: 92.3 %); type: functional; details: read-out: Activity
MGC-803 [4] = assay: Induction of apoptosis in human MGC-803 cells assessed by increase in ROS production at 3 uM measured after 24 hrs by DCFH-DA staining based flow cytometry; type: functional, cell-based
GES1 = assay: Antiproliferative activity against human GES1 cells assessed as inhibition of cell proliferation measured after 72 hrs by MTT assay; type: cell-based; details: GES1, 72 h
PC-9 = assay: Antiproliferative activity against human PC-9 cells assessed as inhibition of cell proliferation measured after 72 hrs by MTT assay; type: functional, cell-based; details: PC-9, 72 h
MGC-803 [5] = assay: Induction of apoptosis in human MGC-803 cells assessed as viable cells at 1.5 uM measured after 48 hrs by Annexin V-FITC/PI staining based flow cytometry method (reference value: 92.3 %); type: functional; details: read-out: Activity
[6] = Toxicity in mouse assessed as effect on lung at 2 mg/kg, ig measured after 2 weeks by H and E staining based microscopic method; type: organism-based; details: in vivo, po, 336 h
MGC-803 [7] = assay: Cell cycle arrest in human MGC-803 cells assessed as accumulation of cells in S phase at 0.75 uM measured after 24 hrs by PI staining based flow cytometry assay (reference value: 18.03%); type: functional
MGC-803 [8] = assay: Cell cycle arrest in human MGC-803 cells assessed as accumulation of cells in G0/G1 phase at 3 uM measured after 24 hrs by PI staining based flow cytometry assay (reference value: 49.39%); type: functional
[9] = Toxicity in mouse assessed as effect on spleen at 2 mg/kg, ig measured after 2 weeks by H and E staining based microscopic method; type: organism-based; details: in vivo, po, 336 h
MGC-803 [10] = assay: Antiproliferative activity against human MGC-803 cells assessed as inhibition of colony formation at 0.125 to 0.5 uM measured after 7 days by crystal violet dye based colony formation assay; type: functional, cell-based; details: dose 0.125-0.5 µM, time 7.0 day
MGC-803 [11] = assay: Cell cycle arrest in human MGC-803 cells assessed as accumulation of cells in G0/G1 phase at 1.5 uM measured after 24 hrs by PI staining based flow cytometry assay (reference value: 49.39%); type: functional
MGC-803 [12] = assay: Induction of apoptosis in human MGC-803 cells assessed by formation of apoptotic bodies at 0.75 to 3 uM measured after 48 hrs by Hoechst 33342 staining based microscopic method; type: functional, cell-based; details: dose 0.75-3 µM
MGC-803 [13] = assay: Antiproliferative activity against human MGC-803 cells assessed as cell viability measured after 24 to 72 hrs by MTT assay; type: functional, cell-based; details: dose 0.75-3 µM, time 24-72 hrs
MGC-803 [14] = assay: Induction of apoptosis in human MGC-803 cells assessed as late apoptotic cells at 1.5 uM measured after 48 hrs by Annexin V-FITC/PI staining based flow cytometry method (reference value: 3.10 %); type: functional
[15] = Selectivity index, ratio of EC50 for human MGC-803 cells to EC50 for human GES1 cells
MGC-803 [16] = assay: Cell cycle arrest in human MGC-803 cells assessed as accumulation of cells in S phase at 3 uM measured after 24 hrs by PI staining based flow cytometry assay (reference value: 18.03%); type: functional
MGC-803 [17] = assay: Cell cycle arrest in human MGC-803 cells assessed as accumulation of cells in G2/M phase at 1.5 uM measured after 24 hrs by PI staining based flow cytometry assay (reference value: 33.35%); type: functional
MGC-803 [18] = assay: Induction of apoptosis in human MGC-803 cells assessed as increase in p53 expression at 0.75 to 3 uM measured after 48 hrs by western blot assay; type: functional, cell-based; details: dose 0.75-3 µM
MGC-803 [19] = assay: Induction of apoptosis in human MGC-803 cells assessed as necrotic cells at 1.5 uM measured after 48 hrs by Annexin V-FITC/PI staining based flow cytometry method (reference value: 3.60 %); type: functional
MGC-803 [20] = assay: Cell cycle arrest in human MGC-803 cells assessed as accumulation of cells in G2/M phase at 0.75 uM measured after 24 hrs by PI staining based flow cytometry assay (reference value: 33.35%); type: functional
MGC-803 [21] = assay: Cell cycle arrest in human MGC-803 cells assessed as accumulation of cells in G2/M phase at 3 uM measured after 24 hrs by PI staining based flow cytometry assay (reference value: 33.35%); type: functional
MGC-803 [22] = assay: Induction of apoptosis in human MGC-803 cells assessed by nuclear fragmentation at 0.75 to 3 uM measured after 48 hrs by Hoechst 33342 staining based microscopic method; type: functional, cell-based; details: dose 0.75-3 µM
MGC-803 [23] = assay: Induction of apoptosis in human MGC-803 cells assessed as upregulation of Bax at 0.75 to 3 uM measured after 48 hrs by western blot assay; type: functional, cell-based; details: dose 0.75-3 µM
MGC-803 [24] = assay: Induction of apoptosis in human MGC-803 cells assessed as increase in cleaved caspase 3/9 expression at 0.75 to 3 uM measured after 48 hrs by western blot assay; type: functional, cell-based; details: dose 0.75-3 µM
MGC-803 [25] = assay: Induction of apoptosis in human MGC-803 cells assessed as decrease in Bcl-2 expression at 0.75 to 3 uM measured after 48 hrs by western blot assay; type: functional, cell-based; details: dose 0.75-3 µM
MGC-803 [26] = assay: Induction of apoptosis in human MGC-803 cells assessed as late apoptotic cells at 3 uM measured after 48 hrs by Annexin V-FITC/PI staining based flow cytometry method (reference value: 3.10 %); type: functional
MGC-803 [27] = assay: Induction of apoptosis in human MGC-803 cells assessed as necrotic cells at 3 uM measured after 48 hrs by Annexin V-FITC/PI staining based flow cytometry method (reference value: 3.60 %); type: functional
MCF7 = assay: Antiproliferative activity against human MCF7 cells assessed as inhibition of cell proliferation measured after 72 hrs by MTT assay; type: functional, cell-based; details: MCF7, 72 h
MGC-803 [28] = assay: Inhibition of cell migration in human MGC-803 cells measured after 48 hrs by wound healing assay; type: functional, cell-based; details: dose 0.25-1 µM
MGC-803 [29] = assay: Inhibition of cell migration in human MGC-803 cells measured after 48 hrs by transwell assay; type: functional, cell-based; details: dose 0.25-1 µM
MGC-803 [30] = assay: Induction of apoptosis in human MGC-803 cells assessed as early apoptotic cells at 3 uM measured after 48 hrs by Annexin V-FITC/PI staining based flow cytometry method (reference value: 0.992 %); type: functional
MGC-803 [31] = assay: Cell cycle arrest in human MGC-803 cells assessed as accumulation of cells in G0/G1 phase at 0.75 uM measured after 24 hrs by PI staining based flow cytometry assay (reference value: 49.39%); type: functional
MGC-803 [32] = assay: Induction of apoptosis in human MGC-803 cells assessed as early apoptotic cells at 0.75 uM measured after 48 hrs by Annexin V-FITC/PI staining based flow cytometry method (reference value: 0.992 %); type: functional
MGC-803 [33] = assay: Induction of apoptosis in human MGC-803 cells assessed as increase in cleaved caspase expression at 0.75 to 3 uM measured after 48 hrs by western blot assay; type: functional, cell-based; details: dose 0.75-3 µM

Q: For `Cc1cc(Nc2ccn(Cc3nc(C)c4ccccc4n3)n2)n2nc(SCc3ccc(Br)cc3)nc2n1`, which Activity [1] is on record?
A: Non-Toxic

Q: What about the Activity [2] of the same compound?
A: Non-Toxic

Q: And the viability at 3 µM (MGC-803 [3])?
A: 28%

Q: What about the Activity (MGC-803 [4]) of the same compound?
A: Active

Q: And the IC50 (GES1)?
A: 36.8 µM

Q: What about the IC50 (PC-9) of the same compound?
A: 5.45 µM

Q: What about the viability at 1.5 µM (MGC-803 [5]) of the same compound?
A: 80.3%

Q: And the Activity [6]?
A: Non-Toxic

Q: What about the Activity (MGC-803 [7]) of the same compound?
A: 22.83%

Q: And the Activity (MGC-803 [8])?
A: 69.99%

Q: And the Activity [9]?
A: Non-Toxic

Q: What about the Activity (MGC-803 [10]) of the same compound?
A: Active

Q: And the Activity (MGC-803 [11])?
A: 57.78%

Q: And the Activity (MGC-803 [12])?
A: Dose-Dependent Effect

Q: What about the Activity (MGC-803 [13]) of the same compound?
A: Dose-Dependent Effect

Q: And the Activity (MGC-803 [14])?
A: 10.4%

Q: And the “Ratio EC50” value [15]?
A: 38

Q: What about the Activity (MGC-803 [16]) of the same compound?
A: 18.5%

Q: What about the Activity (MGC-803 [17]) of the same compound?
A: 14.61%

Q: And the Activity (MGC-803 [18])?
A: Dose-Dependent Effect

Q: And the Activity (MGC-803 [19])?
A: 2.47%

Q: What about the Activity (MGC-803 [20]) of the same compound?
A: 19.3%

Q: And the Activity (MGC-803 [21])?
A: 4.64%

Q: What about the Activity (MGC-803 [22]) of the same compound?
A: Dose-Dependent Effect

Q: What about the Activity (MGC-803 [23]) of the same compound?
A: Dose-Dependent Effect

Q: What about the Activity (MGC-803 [24]) of the same compound?
A: Dose-Dependent Effect

Q: And the Activity (MGC-803 [25])?
A: Dose-Dependent Effect

Q: And the Activity (MGC-803 [26])?
A: 27.7%

Q: What about the Activity (MGC-803 [27]) of the same compound?
A: 24.9%

Q: What about the IC50 (MCF7) of the same compound?
A: 1.43 µM

Q: And the Activity (MGC-803 [28])?
A: Dose-Dependent Effect

Q: What about the Activity (MGC-803 [29]) of the same compound?
A: Dose-Dependent Effect

Q: And the Activity (MGC-803 [30])?
A: 19.3%

Q: What about the Activity (MGC-803 [31]) of the same compound?
A: 56.2%

Q: What about the Activity (MGC-803 [32]) of the same compound?
A: 2.17%

Q: What about the Activity (MGC-803 [33]) of the same compound?
A: Dose-Dependent Effect
